From patent publication US12435060B2, “Acylamino bridged heterocyclic compound, and composition and application thereof” (BEIJING SCITECH-MQ PHARMACEUTICALS LIMITED, priority 2019, dated 2025)

These compounds were tested on HT29 cells (assay: Inhibition of cell necrosis (CCK8 method), induced programmed necrosis of HT29 cells). Conditions: Homo sapiens, HT-29; rescue from necrosis induced by TNF-α 20 ng/mL, AT-406 1 μM, Z-VAD-FMK 20 μM; 16-20 hours; CCK-8, OD 450 nm.
Type: cell-based
Experimental: Assay Example 2. Assay Method for Compounds Inhibiting Cell Necrosis (CCK8 Method)
In this assay example 2, under the condition of inducing programmed cell necrosis, different concentrations of the test compounds were added to test the IC50 of the rescue effect of the test compounds on the programmed necrosis.
• Compounds: Dissolved in DMSO to make a 10 mM solution; • TNF-α: The initial concentration was 100 μg/mL; • Z-VAD-FMK: Dissolved in DMSO to make a 10 mM solution; • AT-406: Dissolved in DMSO to make a 10 mM solution. I. Experimental Steps • 1) Compound dilution: All test compounds were dissolved in DMSO to prepare a 10 mM stock solution, and the first concentration gradient dilution of the test compounds was completed in DMSO. The gradient dilution factor was 4 times and 9 concentration gradients were made; A 40-fold overall dilution of all compounds was completed in the cell culture medium, and the resulting compound was 10× compound, which will be added to the wells of the 96-well plate containing cells, so that the final cell culture medium was 1× the designed final concentration. The general drug design is 9 concentration gradients, of which the highest final concentration is 25000 nM, the lowest concentration after 4-fold dilution of 9 concentrations is 0.38 nM, and the final concentration of DMSO in all wells is 0.25%. The compound dilution process is shown in FIG. 3. • 2) HT 29 cells in good growth condition were selected, trypsinized, the cells was collected by centrifugation, resuspended in McCOY's 5A complete medium (containing 10% FBS) and counted, and the number of cells and survival rate were recorded. • 3) Cells were inoculated to the 60 wells in the middle of the 96-well culture plate at a density of 12000 cells/80 μL/well, surrounding wells were filled with sterile water, and incubated overnight. • 4) 10 μL of the 10× compound diluted with the medium was added to the assay wells, 10 μL of McCOY's 5A complete medium containing 2.5% DMSO was added to the inducer-free wells and the control wells, mixed and shaked, and incubated for 30 minutes. • 5) Then 10 μL of inducer mixture (TNF-α, AT-406, Z-VAD-FMK with the final concentration of 20 ng/mL, 1 μM, 20 μM) was added into the assay wells and control wells. 10 μL McCOY's 5A complete medium was added to wells without inducer. Cells were cultured in an incubator with 5% CO2, at 37° C. • 6) After culturing for 16-20 hours, 10 μL of CCK-8 reagent was added to each well, and incubated for about 2 hours; • 7) The OD value was read at 450 nm on the multi-function plate reader. • 8) Data processing: Inhibition rate of necrosis (%)=100*(X−B)/(A−B) • A: The OD values of the wells without inducer (containing cells, CCK-8, without compound and inducer); • […]: OD values of assay wells (containing cells, CCK-8, compound, inducer); • B: OD values of control wells (containing cells, CCK-8, inducer, without compound). Then the value were imported into Graphpad Prism5 software for curve fitting and the IC50 values were calculated.

Which IC50 does the source give for `COCCOc1cnc(C)c(-c2ccnc(NC(=O)c3nnc(Cc4ccccc4)[nH]3)c2)c1` [Example 129, 5-benzyl-N-(5-(2-methoxyethoxy)-2-methyl-[3,4′-bipyridin]-2′-yl)-4H-1,2,4-triazole-3-carboxamide] here?
The IC50 was 100 to 1000 nM.

Which IC50 does the source give for `O=C(Nc1cc(-c2cc(OCCCCO)ccc2Cl)ccn1)c1nnc(Cc2ccccc2F)[nH]1` [Example 372, 5-(2-fluorobenzyl)-N-(4-(2-chloro-5-(4-hydroxybutoxy)phenyl)pyridin-2-yl)-4H-1,2,4-triazole-3-carboxamide] here?
The IC50 was ≤ 100 nM.

How did the IC50 turn out when `Cc1ccc(OCCCC(C)(C)O)cc1-c1ccnc(NC(=O)c2nnc(CC(C)(C)C)[nH]2)c1` [Example 170, N-(4-(5-((4-hydroxy-4-methylpentyl)oxy)-2-methylphenyl)pyridin-2-yl)-5-neopentyl-4H-1,2,4-triazole-3-carboxamide] was run?
Its IC50 is 100 to 1000 nM.

With `Cc1ccc(OCCCC#N)cc1-c1ccnc(NC(=O)c2nnc(Cc3ccccc3)[nH]2)c1` [Example 148, 5-benzyl-N-(4-(5-(3-cyanopropoxy)-2-methylphenyl)pyridin-2-yl)-4H-1,2,4-triazole-3-carboxamide] as the compound, how does the IC50 read?
Its IC50 is ≤ 100 nM.

For `Cc1ccc(OCCCC(C)(C)O)cc1-c1ccnc(NC(=O)c2nnc(Cc3ccc(F)cc3F)[nH]2)c1` [Example 201, 5-(2,4-difluorobenzyl)-N-(4-(5-((4-hydroxy-4-methylpentyl)oxy)-2-methylphenyl)pyridin-2-yl)-4H-1,2,4-triazole-3-carboxamide], which IC50 is on record?
Its IC50 is ≤ 100 nM.

How did the IC50 turn out when `CC(C)(O)CCCOc1ccc(Cl)c(-c2cc(NC(=O)c3nnc(Cc4ccccc4F)[nH]3)ncc2F)c1` [Example 409] was run?
Its IC50 is ≤ 100 nM.

How did the IC50 turn out when `COCCCOc1ccc(Cl)c(-c2ccnc(NC(=O)c3nnc(CC4CCCC4)[nH]3)c2)c1` [Example 397, N-(4-(2-chloro-5-(3-methoxypropoxy)phenyl)pyridin-2-yl)-5-(cyclopentylmethyl)-4H-1,2,4-triazole-3-carboxamide] was run?
The IC50 was ≤ 100 nM.

With `O=C(Nc1cc(-c2cc(OCCC3CCOCC3)ccc2C(F)(F)F)ccn1)c1nnc(Cc2ccccc2)[nH]1` [Example 305, 5-benzyl-N-(4-(5-(2-(tetrahydro-2H-pyran-4-yl)ethoxy)-2-(trifluoromethyl)phenyl)pyridin-2-yl)-4H-1,2,4-triazole-3-carboxamide] as the compound, how does the IC50 read?
The IC50 was ≤ 100 nM.

Which IC50 does the source give for `O=C(Nc1cc(-c2cc(OCCC3CCOCC3)ccc2Cl)c(F)cn1)c1nnc(CC2CCCCC2)[nH]1` [Example 429, N-(4-(2-chloro-5-(2-(tetrahydro-2H-pyran-4-yl)ethoxy)phenyl)-5-fluoropyridin-2-yl)-5-(cyclohexylmethyl)-4H-1,2,4-triazole-3-carboxamide] here?
The IC50 was ≤ 100 nM.

How did the IC50 turn out when `Cc1cc(F)cc(Cc2nnc(C(=O)Nc3cc(-c4cc(OCCCC(C)(C)O)ccc4C)ccn3)[nH]2)c1` [Example 207, 5-(3-fluoro-5-methylbenzyl)-N-(4-(5-((4-hydroxy-4-methylpentyl)oxy)-2-methylphenyl)pyridin-2-yl)-4H-1,2,4-triazole-3-carboxamide] was run?
Its IC50 is 100 to 1000 nM.

For `CC(C)(O)CCCOc1ccc(Cl)c(-c2ccnc(NC(=O)c3nnc(Cc4cc(F)c(F)cc4F)[nH]3)c2)c1` [Example 355, N-(4-(2-chloro-5-((4-hydroxy-4-methylpentyl)oxy)phenyl)pyridin-2-yl)-5-(2,4,5-trifluorobenzyl)-4H-1,2,4-triazole-3-carboxamide], which IC50 is on record?
Its IC50 is 100 to 1000 nM.

With `Cc1ccc(OCCC2CCOCC2)cc1-c1cc(NC(=O)c2nnc(CC3CCCCC3)[nH]2)ncc1C` [Example 254, 5-(cyclohexylmethyl)-N-(5-methyl-4-(2-methyl-5-(2-(tetrahydro-2H-pyran-4-yl)ethoxy)phenyl)pyridin-2-yl)-4H-1,2,4-triazole-3-carboxamide] as the compound, how does the IC50 read?
The IC50 was 100 to 1000 nM.

For `CCOCCOc1ccc(C(F)(F)F)c(-c2ccnc(NC(=O)c3nnc(Cc4ccccc4)[nH]3)c2)c1` [Example 283, 5-benzyl-N-(4-(5-(2-ethoxyethoxy)-2-(trifluoromethyl)phenyl)pyridin-2-yl)-4H-1,2,4-triazole-3-carboxamide], which IC50 is on record?
Its IC50 is ≤ 100 nM.

`CC(C)(C)OCCOc1ccc(C(F)(F)F)c(-c2ccnc(NC(=O)c3nnc(CC4CCCCC4)[nH]3)c2)c1` [Example 294, 5-(cyclohexylmethyl)-N-(4-(5-(2-(tert-butoxy)ethoxy)-2-(trifluoromethyl)phenyl)pyridin-2-yl)-4H-1,2,4-triazole-3-carboxamide] was tested. Which IC50 did it give?
Its IC50 is ≤ 100 nM.

For `Cc1ccc(OCC2CCOCC2)cc1-c1cc(NC(=O)c2nnc(CC3CCCCC3)[nH]2)ncc1F` [Example 497, 5-(cyclohexylmethyl)-N-(5-fluoro-4-(2-methyl-5-((tetrahydro-2H-pyran-4-yl)methoxy)phenyl)pyridin-2-yl)-4H-1,2,4-triazole-3-carboxamide], which IC50 is on record?
The IC50 was ≤ 100 nM.

Which IC50 does the source give for `O=C(Nc1cc(-c2cc(OCCC3CCOCC3)ccc2C(F)(F)F)ncn1)c1nnc(Cc2ccccc2F)[nH]1` [Example 459, 5-(2-fluorobenzyl)-N-(6-(5-(2-(tetrahydro-2H-pyran-4-yl)ethoxy)-2-(trifluoromethyl)phenyl)pyrimidin-4-yl)-4H-1,2,4-triazole-3-carboxamide] here?
Its IC50 is ≤ 100 nM.

How did the IC50 turn out when `Cc1ccc(OCCN2CCCCC2)cc1-c1ccnc(NC(=O)c2nnc(Cc3ccc(F)cc3F)[nH]2)c1` [Example 230, 5-(2,4-difluorobenzyl)-N-(4-(2-methyl-5-(2-(piperidin-1-yl)ethoxy)phenyl)pyridin-2-yl)-4H-1,2,4-triazole-3-carboxamide] was run?
The IC50 was 100 to 1000 nM.

For `CCOc1ccccc1-c1ccnc(NC(=O)c2nnc(Cc3ccccc3)[nH]2)c1` [Example 4, 5-benzyl-N-(4-(2-ethoxyphenyl)pyridin-2-yl)-4H-1,2,4-triazole-3-carboxamide], which IC50 is on record?
The IC50 was 1000 to 10000 nM.

How did the IC50 turn out when `Cc1ccc(OCC2CCOCC2)cc1-c1cc(NC(=O)c2nnc(Cc3ccccc3F)[nH]2)ncc1F` [Example 496, N-(5-fluoro-4-(2-methyl-5-((tetrahydro-2H-pyran-4-yl)methoxy)phenyl)pyridin-2-yl)-5-(2-fluorobenzyl)-4H-1,2,4-triazole-3-carboxamide] was run?
The IC50 was ≤ 100 nM.

Which IC50 does the source give for `Cc1ccc(F)cc1-c1ccnc(NC(=O)c2nnc(Cc3ccccc3)[nH]2)c1` [Example 33, 5-benzyl-N-(4-(5-fluoro-2-methylphenyl)pyridin-2-yl)-4H-1,2,4-triazole-3-carboxamide] here?
Its IC50 is 100 to 1000 nM.

For `Cc1ccc(OCCC2CCCCO2)cc1-c1ccnc(NC(=O)c2nnc(Cc3ccccc3)[nH]2)c1` (centres unmarked) [Example 227, 5-benzyl-N-(4-(2-methyl-5-(2-(tetrahydro-2H-pyran-2-yl)ethoxy)phenyl)pyridin-2-yl)-4H-1,2,4-triazole-3-carboxamide], which IC50 is on record?
The IC50 was ≤ 100 nM.

For `O=C(Nc1cc(-c2cc(OCCC3CCOCC3)ccc2F)c(Cl)cn1)c1nnc(Cc2ccccc2F)[nH]1` [Example 333, N-(5-chloro-4-(2-fluoro-5-(2-(tetrahydro-2H-pyran-4-yl)ethoxy)phenyl)pyridin-2-yl)-5-(2-fluorobenzyl)-4H-1,2,4-triazole-3-carboxamide], which IC50 is on record?
The IC50 was 100 to 1000 nM.

`COc1ccc(Cl)c(-c2ccnc(NC(=O)c3nnc(Cc4ccccc4)[nH]3)c2)c1` [Example 13, 5-benzyl-N-(4-(2-chloro-5-methoxyphenyl)pyridin-2-yl)-4H-1,2,4-triazole-3-carboxamide] was tested. Which IC50 did it give?
Its IC50 is 1000 to 10000 nM.

Which IC50 does the source give for `Cc1ccc(OCCCC(C)(C)O)cc1-c1cc(NC(=O)c2nnc(Cc3ccccc3F)[nH]2)ncn1` [Example 433, 5-(2-fluorobenzyl)-N-(6-(5-((4-hydroxy-4-methylpentyl)oxy)-2-methylphenyl)pyrimidin-4-yl)-4H-1,2,4-triazole-3-carboxamide] here?
Its IC50 is ≤ 100 nM.

Which IC50 does the source give for `O=C(Nc1cc(-c2cc(OCCCCCO)ccc2Cl)ccn1)c1nnc(CC2CCCCC2)[nH]1` [Example 378, N-(4-(2-chloro-5-((5-hydroxypentyl)oxy)phenyl)pyridin-2-yl)-5-(cyclohexylmethyl)-4H-1,2,4-triazole-3-carboxamide] here?
The IC50 was ≤ 100 nM.

Which IC50 does the source give for `O=C(Nc1cc(-c2cc(OCC3CCOCC3)ccc2C(F)(F)F)ncn1)c1nnc(Cc2ccccc2F)[nH]1` [Example 455, 5-(2-fluorobenzyl)-N-(6-(5-((tetrahydro-2H-pyran-4-yl)methoxy)-2-(trifluoromethyl)phenyl)pyrimidin-4-yl)-4H-1,2,4-triazole-3-carboxamide] here?
The IC50 was ≤ 100 nM.
